In patent US8697031B2, “Dual function polymer micelles” (Case Western Reserve University, priority 2004, dated 2014):
Where no end group is shown, it is not given here.

Tested on: SLK tumor endothelial cells
Assay: Flow cytometry analysis of micelle uptake
Assay type: cell-based
Conditions: SLK cells pre-incubated with free blocking peptide at 9 mM, then co-incubated with micelles
Method: SLK cells were seeded at 125,000 cells/well in 6-well plates in 2 mL DMEM with 10% FBS. After 24 h, 1 mg of micelles (from 3.3 mg/ml micelle suspension) for each micelle formulation with different cRGD density (0, 5, 16, 76% cRGD) was added into each well and incubated at 37° C. for 2 h. Then, cells were washed, trypsinized and neutralized. After centrifugation at 1200 rpm for 5 min, cells were re-suspended in 1 mL PBS, followed by filtration and analysis using flow cytometry. […] In the control experiment, SLK cells were first incubated with a free blocking peptide, Ala-Ala-Arg-Gly-Asp-Tyr (AARGDY) (SEQ ID NO: 757), and then co-incubated with 76% cRGD-functionalized micelles.

Substance: AARGDY
- inhibition of uptake of 76% cRGD-functionalized micelles: ~100%
